Experimental data as given in article PMC6278467, “Isolation and Identification of Potent Antidiabetic Compounds from Antrodia cinnamomea—An Edible Taiwanese Mushroom” (Molecules, 2018).
Converted amounts (≈) assume the structure as drawn.

Molecular target: T1, Saccharomyces cerevisiae α-glucosidase
T1 construct: gene MAL12; commercial enzyme from Sigma Chemical Co
Experiment: pNPG hydrolysis, absorbance at […] nm
Assay type: biochemical
Settings: p-NPG (10 mmol/L stock, 50 μL), 0.1 mol/L potassium phosphate pH 7, 37 °C, 20 min preincubation

[1] = value lies below the stated tested range (0.02-0.25, unit printed as μg/mL in footnote)

SMILES | EC50 [µg/mL] | EC50 [1] [µg/mL]
C=C(CC[C@@H](C)[C@H]1CC[C@H]2C3=C(C(=O)C[C@]12C)[C@@]1(C)CC[C@@H](O)[C@](C)(O)[C@@H]1C[C@@H]3O)[C@@H](C)C(=O)O [compound 2, 25R-antcin K] | 54 ± 0.4 (≈ 111 µM) | –
C=C(CC[C@@H](C)[C@H]1CC[C@H]2C3=C(C(=O)C[C@]12C)[C@@]1(C)CCC(=O)[C@@H](C)[C@@H]1CC3=O)[C@H](C)C(=O)O [compound 5, 25S-antcin B] | 210 ± 7.6 (≈ 448 µM) | –
C=C(CC[C@@H](C(=O)O)[C@H]1CC[C@@]2(C)C3=CC[C@H]4C(C)(C)[C@@H](O)CC[C@]4(C)C3=CC[C@]12C)C(C)C [compound 7, dehydroeburicoic acid] | – | 18 ± 0.2 (≈ 38.4 µM)
C=C(CC[C@@H](C(=O)O)[C@H]1CC[C@@]2(C)C3=C(CC[C@]12C)[C@@]1(C)CC[C@H](O)C(C)(C)[C@@H]1CC3)C(C)C [compound 8, eburicoic acid] | – | 12 ± 0.4 (≈ 25.5 µM)
